# Tested on: MDA-MB-231 human breast cancer cells
# Experiment: Proliferation assay MDA-MB-231 (crystal violet)
# Assay type: cell-based
# Details: Homo sapiens, MDA-MB-231, 96 h, MDA-MB-231 cells, 4 days, median, read-out: Prolif-MDA MB231 IC50 - [mol/l] (median)
# Procedure: 4. Proliferation assay: MDA-MB-231, CAL-120
# Human tumour cells were originally obtained from the American Type Culture Collection (ATCC), or from the Deutsche Sammlung von Mikroorganismen and Zellkulturen (DSMZ, German Collection of Microorganisms and Cell Cultures). Cultivated tumour cells (CAL-120, human breast adenocarcinoma cells, DSMZ ACC-459; MDA-M B-231, human breast cancer cells, ATCC HTB-26) were plated at a density of 4,000 cells/well in a 96-well multititer plate in 200 microL of their respective growth medium supplemented 10% fetal calf serum. After 24 hours, the cells of one plate (zero-point plate) were stained with crystal violet (see below), while the medium of the other plates was supplemented with the test substances in various concentrations (0 micromol/L, as well as in the range of 0.01-10 micromol/L; the final concentration of the solvent dimethyl sulfoxide was adjusted to 0.1%) using a Tecan HP D300 Digital Dispenser. The cells were incubated for 4 days in the presence of test substances. Cell proliferation was determined by staining the cells with crystal violet: the cells were fixed by adding 20 microL/measuring point of an 11% glutaric aldehyde solution for 15 minutes at room temperature. After three washing cycles of the fixed cells with water, the plates were dried at room temperature. The cells were stained by adding 100 microL/measuring point of a 0.1% crystal violet solution (pH 3.0). After three washing cycles of the stained cells with water, the plates were dried at room temperature. The dye was dissolved by adding 100 microL/measuring point of a 10% acetic acid solution. The extinction was determined by photometry at a wavelength of 595 nm. The change of cell number, in percent, was calculated by normalization of the measured values to the extinction values of the zero-point plate(=0%) and the extinction of the untreated (0 μM) cells(=100%). The IC50 values (inhibitory concentration at 50% of maximal effect) were determined by means of a 4 parameter fit.
row,Structure (SMILES),IC50 [nM]
1,"CN1CCCC(n2nc(NCc3nc4ccccc4[nH]3)c3ncc(C4CC4)nc32)CC1 (racemic) [Example 34, (±)-N-[(1H-benzimidazol-2-yl)methyl]-6-cyclopropyl-1-(1-methylazepan-4-yl)-1H-pyrazolo[3,4-b]pyrazin-3-amine]",38.8
2,"CN1CCC(n2nc(NCc3nc4c(Br)cccc4[nH]3)c3ncc(C4CC4)nc32)CC1 [Example 20, N-[(4-bromo-1H-benzimidazol-2-yl)methyl]-6-cyclopropyl-1-(1-methylpiperidin-4-yl)-1H-pyrazolo[3,4-b]pyrazin-3-amine]",14.4
3,"Cc1cccc2[nH]c(CNc3nn(C4CCOCC4)c4nc(C5CC5)cnc34)nc12 [Example 33, 6-cyclopropyl-N-[(4-methyl-1H-benzimidazol-2-yl)methyl]-1-(oxan-4-yl)-1H-pyrazolo[3,4-b]pyrazin-3-amine]",37
4,"Cc1ccc2[nH]c(CNc3nn(C4CCN(C)CC4)c4nc(C5CC5)cnc34)nc2c1C [Example 28, 6-cyclopropyl-N-[(4,5-dimethyl-1H-benzimidazol-2-yl)methyl]-1-(1-methylpiperidin-4-yl)-1H-pyrazolo[3,4-b]pyrazin-3-amine]",19.9
5,"c1ccc2[nH]c(CNc3nn(C4CCOC4)c4nc(C5CC5)cnc34)nc2c1 (single isomer, unassigned) [Example 17, (+) or (−)-N-[(1H-benzimidazol-2-yl)methyl]-6-cyclopropyl-1-(oxolan-3-yl)-1H-pyrazolo[3,4-b]pyrazin-3-amine]",137
6,"Fc1cccc2[nH]c(CNc3nn(C4CCOCC4)c4nc(C5CC5)cnc34)nc12 [Example 23, 6-cyclopropyl-N-[(4-fluoro-1H-benzimidazol-2-yl)methyl]-1-(oxan-4-yl)-1H-pyrazolo[3,4-b]pyrazin-3-amine]",28.6
7,"CN1CCC(n2nc(NCc3nc4c(F)c(F)ccc4[nH]3)c3ncc(C4CC4)nc32)CC1 [Example 9, 6-cyclopropyl-N-[(4,5-difluoro-1H-benzimidazol-2-yl)methyl]-1-(1-methylpiperidin-4-yl)-1H-pyrazolo[3,4-b]pyrazin-3-amine]",41.2
8,"Cc1c(Cl)ccc2[nH]c(CNc3nn(C4CCN(C)CC4)c4nc(C5CC5)cnc34)nc12 [Example 21, N-[(5-chloro-4-methyl-1H-benzimidazol-2-yl)methyl]-6-cyclopropyl-1-(1-methylpiperidin-4-yl)-1H-pyrazolo[3,4-b]pyrazin-3-amine]",11.3
9,"CC(CCN(C)C)n1nc(NCc2nc3ccccc3[nH]2)c2ncc(C3CC3)nc21 (racemic) [Example 62, (±)-N-[(1H-benzimidazol-2-yl)methyl]-6-cyclopropyl-1-[4-(dimethylamino)butan-2-yl]-1H-pyrazolo[3,4-b]pyrazin-3-amine]",873
10,"COCCC(C)n1nc(NCc2nc3ccccc3[nH]2)c2ncc(C3CC3)nc21 (racemic) [Example 57, (±)-N-[(1H-benzimidazol-2-yl)methyl]-6-cyclopropyl-1-(4-methoxybutan-2-yl)-1H-pyrazolo[3,4-b]pyrazin-3-amine]",241
11,"CN1CCC(n2nc(NCc3nc4ccccc4[nH]3)c3ncc(C4CC4)nc32)C1 (racemic) [Example 35, (±)-N-[(1H-benzimidazol-2-yl)methyl]-6-cyclopropyl-1-(1-methylpyrrolidin-3-yl)-1H-pyrazolo[3,4-b]pyrazin-3-amine]",59.5

# Same assay, conditions: MDA-MB-231 cells, 4 days, median, read-out: Prolif-MDA MB231 IC50 - [mol/l] (median)
row,Structure (SMILES),IC50 [nM]
1,"CC(CCN(C)C)n1nc(NCc2nc3ccccc3[nH]2)c2ncc(C3CC3)nc21 (single isomer, unassigned) [Example 64, (−) or(+)-N-[(1H-benzimidazol-2-yl)methyl]-6-cyclopropyl-1-[4-(dimethylamino)butan-2-yl]-1H-pyrazolo[3,4-b]pyrazin-3-amine]",536
2,"CN1CCC(n2nc(NCc3nc4ccccc4[nH]3)c3ncc(C4CC4)nc32)C1 (single isomer, unassigned) [Example 78, (+) or (−)-N-[(1H-benzimidazol-2-yl)methyl]-6-cyclopropyl-1-(1-methylpyrrolidin-3-yl)-1H-pyrazolo[3,4-b]pyrazin-3-amine]",34.7
